In series [1] the target is Microtubule-associated protein tau (Homo sapiens) (UniProt P10636). As to the kind of experiment: Binding affinity to human tau associated NFTs at 100 uM by fluorescence microscopy.
The target is the same in series [2]. The series is described as follows: Binding affinity to human tau associated NFTs at 10 uM by fluorescence microscopy.
Series [3] deals with Amyloid-beta precursor protein (Homo sapiens) (UniProt P05067). The series is described as follows: Binding affinity to human amyloid-beta plaques at 10 uM by fluorescence microscopy.
The target of series [4] is Microtubule-associated protein tau (Homo sapiens) (UniProt P10636). The series is described as follows: Binding affinity to human tau associated NFTs at 1 uM by fluorescence microscopy.
For series [5], the target named is Amyloid-beta precursor protein (Homo sapiens) (UniProt P05067). As to the kind of experiment: Binding affinity to human amyloid-beta plaques at 1 uM by fluorescence microscopy.
The target is the same in series [6]. As to the kind of experiment: Binding affinity to human amyloid-beta plaques at 100 uM by fluorescence microscopy.
Series [7] deals with Brain. As to the kind of experiment: Biodistribution in C57B1/6 mouse brain at 2 MBq, iv after 2 mins by gamma-counting analysis. The following applies: in vivo. It counts as ADME, organism-based.
The test system of series [8] is Brain. As to the kind of experiment: Biodistribution in C57B1/6 mouse brain at 2 MBq, iv after 30 mins by gamma-counting analysis. It is filed as ADME, organism-based. The following applies: in vivo, 0.5 h.
The subject of series [9] is Brain. As to the kind of experiment: Biodistribution in C57B1/6 mouse brain at 2 MBq, iv after 10 mins by gamma-counting analysis. It counts as ADME, organism-based. The following applies: in vivo.
Series [10] deals with Brain. The series is described as follows: Biodistribution in C57B1/6 mouse brain at 2 MBq, iv after 60 mins by gamma-counting analysis. It counts as ADME, organism-based. The following applies: in vivo, 1 h.
Series [11] relates to Brain. The series is described as follows: Ratio of clearance in C57B1/6 mouse brain at 2 MBq after 2 mins to clearance in C57B1/6 mouse brain at 2 MBq after 30 mins. It is filed as ADME, tissue-based. The following applies: in vivo.
Series [12] relates to Brain. As to the kind of experiment: Biodistribution in Wistar rat brain at 50 ug, iv after 10 mins by […] analysis. It is filed as ADME, organism-based. The following applies: in vivo.
The test system of series [13] is Brain. The series is described as follows: Biodistribution in Wistar rat brain at 50 ug, iv after 30 mins by […] analysis. It is filed as ADME, organism-based. The following applies: in vivo, 0.5 h.
The subject of series [14] is Brain. The series is described as follows: Biodistribution in Wistar rat brain at 50 ug, iv after 2 mins by […] analysis. It counts as ADME, organism-based. The following applies: in vivo.
The test system of series [15] is Brain. The series is described as follows: Biodistribution in Wistar rat brain at 50 ug, iv after 60 mins by […] analysis. It counts as ADME, organism-based. The following applies: in vivo, 1 h.
Series [16] concerns Brain. The series is described as follows: Ratio of clearance in Wistar rat brain at 50 ug after 2 mins to clearance in Wistar rat brain at 50 ug after 30 mins. It is filed as ADME, tissue-based. The following applies: in vivo.
Where [17] appears, read: tested as the 11C-labelled form.

This passage reports Activity, Drug uptake and Ratio results from ChEMBL document CHEMBL2429822, “Imaging probes of tau pathology” (ACS Med Chem Lett, 2013).

The source made the active and inactive calls. The calls are words filed in the database; no cut-off is given here.

Amyloid-beta precursor protein (Homo sapiens), sequence (P05067 whole entry): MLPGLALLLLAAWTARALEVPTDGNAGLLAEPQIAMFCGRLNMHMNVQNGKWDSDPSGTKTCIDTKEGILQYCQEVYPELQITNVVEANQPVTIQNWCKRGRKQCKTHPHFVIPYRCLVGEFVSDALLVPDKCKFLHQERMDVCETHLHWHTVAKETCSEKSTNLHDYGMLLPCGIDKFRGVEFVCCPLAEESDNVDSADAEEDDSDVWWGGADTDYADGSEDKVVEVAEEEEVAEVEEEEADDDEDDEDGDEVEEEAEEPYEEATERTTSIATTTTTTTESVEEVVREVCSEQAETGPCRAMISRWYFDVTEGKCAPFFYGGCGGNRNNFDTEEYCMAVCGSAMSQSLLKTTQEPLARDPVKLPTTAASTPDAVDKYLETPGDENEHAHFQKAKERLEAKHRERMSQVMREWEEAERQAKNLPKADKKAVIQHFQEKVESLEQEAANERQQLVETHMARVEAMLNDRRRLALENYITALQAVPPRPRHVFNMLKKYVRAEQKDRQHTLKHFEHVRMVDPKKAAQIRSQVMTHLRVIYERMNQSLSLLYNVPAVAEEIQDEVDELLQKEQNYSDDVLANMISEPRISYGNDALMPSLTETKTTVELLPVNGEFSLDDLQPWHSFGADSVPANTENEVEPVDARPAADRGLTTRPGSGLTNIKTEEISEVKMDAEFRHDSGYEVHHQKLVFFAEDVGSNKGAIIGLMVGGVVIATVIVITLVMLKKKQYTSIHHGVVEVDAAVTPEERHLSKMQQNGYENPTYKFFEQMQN
Microtubule-associated protein tau (Homo sapiens), sequence (P10636 whole entry): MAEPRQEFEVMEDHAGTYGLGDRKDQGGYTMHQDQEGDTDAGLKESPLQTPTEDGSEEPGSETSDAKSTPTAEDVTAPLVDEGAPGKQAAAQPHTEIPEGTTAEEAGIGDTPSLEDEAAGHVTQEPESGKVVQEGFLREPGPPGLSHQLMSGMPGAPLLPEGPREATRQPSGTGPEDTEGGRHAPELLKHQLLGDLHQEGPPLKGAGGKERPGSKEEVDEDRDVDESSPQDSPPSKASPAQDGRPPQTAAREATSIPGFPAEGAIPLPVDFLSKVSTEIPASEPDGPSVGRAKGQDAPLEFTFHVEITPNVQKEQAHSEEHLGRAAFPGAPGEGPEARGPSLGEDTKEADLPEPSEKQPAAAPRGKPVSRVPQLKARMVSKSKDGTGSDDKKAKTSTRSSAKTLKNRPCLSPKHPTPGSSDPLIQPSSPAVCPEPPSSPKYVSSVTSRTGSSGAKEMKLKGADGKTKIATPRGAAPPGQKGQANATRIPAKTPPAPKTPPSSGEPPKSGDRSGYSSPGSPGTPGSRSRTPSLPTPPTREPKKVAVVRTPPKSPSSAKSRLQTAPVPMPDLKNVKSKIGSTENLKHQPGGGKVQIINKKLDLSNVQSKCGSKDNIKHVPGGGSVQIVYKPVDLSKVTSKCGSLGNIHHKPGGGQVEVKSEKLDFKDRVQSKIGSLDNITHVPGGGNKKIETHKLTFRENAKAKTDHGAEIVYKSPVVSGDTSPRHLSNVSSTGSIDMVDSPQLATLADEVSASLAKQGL

For the compound `CNc1ccc(-c2nc3ccc(O)cc3s2)cc1`, the outcome in [1] (setting [17]), in series [2] (setting [17]), in series [3] (setting [17]), in series [5] (setting [17]) and in series [6] (setting [17]) was Active. Moreover, the outcome in series [4] (setting [17]) was inactive.
For `CC(C)NC(=O)c1nn(-c2ccc(OCCC[18F])cc2)c(=O)c2c(N)scc12`, the Drug uptake in the series with Brain [7] came to 9.84%; with Brain [8], 3.46%; with Brain [9] it was 5.77%; with Brain [10] it was 1.51%. In the series on Brain [11], the Ratio came out at 2.8.
In the case of `CC(C)NC(=O)c1nn(-c2ccc(F)cc2)c(=O)c2c(N)scc12`, the result in series [1] and in series [6] was Active. Besides, the result in series [2], in series [3], in [4] and in [5] was inactive.
Turning to `CC(C)NC(=O)c1nn(-c2ccc([N+](=O)[O-])cc2)c(=O)c2c(N)scc12`, the outcome in series [1], in [2] and in [6] was Active. Moreover, the result in series [3] and in series [4] was inactive.
Regarding `CC(C)NC(=O)c1nn(-c2ccc(OCCF)cc2)c(=O)c2c(N)scc12`, the result in [1], in series [2], in series [3], in series [4] and in series [6] was Active. The Drug uptake with Brain [12] is 0.081%; in the series with Brain [13], 0.021%; in the series on Brain [14], 0.28%; in the series with Brain [15] it was 0.011%. The Ratio in the series with Brain [16] is 13.3. Also, in series [5], the outcome was inactive.
As for `CC(C)NC(=O)c1nn(-c2ccc(OCC[18F])cc2)c(=O)c2c(N)scc12`, the Drug uptake in the series with Brain [7] was found to be 6.5%; in the series with Brain [8], 2.83%; with Brain [9], 3.26%; in the series with Brain [10], 2.35%. Moreover, the Ratio with Brain [11] came out at 2.3.
Turning to `CC(C)NC(=O)c1nn(-c2ccc(OCCF)cc2)c(=O)c2c(NC(=O)OC(C)(C)C)scc12`, the outcome in series [1] and in series [6] was inactive.
For `CC(=C(C#N)C#N)c1ccc2cc(N(C)CCF)ccc2c1`, the outcome in series [1], in series [2], in series [3], in series [4], in series [5] and in [6] was Active.
Regarding `CC(C)NC(=O)c1nn(-c2ccc(OCC(O)CF)cc2)c(=O)c2c(N)scc12` (configuration not stated), the outcome in [1] and in series [6] was inactive.
On to `CC(C)(C)OC(=O)c1nn(-c2ccc(OCCF)cc2)c(=O)c2c(N)scc12`, for which the result in series [1] and in series [6] was inactive.
On to `CC(C)NC(=O)c1nn(-c2ccc(OCCCF)cc2)c(=O)c2c(N)scc12`, for which the outcome in [1] and in series [6] was inactive.
